Where a SMILES comes first, the peptide text is derived from it. The star is where a group is joined. Biotin = O=C1N[C@H]2[C@H](CS[C@H]2CCCCC(=O)*)N1
Tests used:
wild-type ERG (wtERG) = molecular target: T1, wild-type ERG (wtERG) (Homo sapiens, UniProt P11308); assay: Pull-down of purified recombinant proteins with biotin-peptides; assay type: binding; conditions: purified recombinant protein
T1 construct: cDNAs encoding full-length ERG and GUS were cloned into pDEST10 vector; His; made in house; host or cells: SF9 insect cells (Bac-to-Bac baculovirus)
Description: (A) Pull-down experiment was performed by incubating purified recombinant proteins and biotin-peptides. (B-C) Representative sensorgrams for both wtERG and ERG_Y373A binding to EIP1. Real-time binding was measured by immobilization of biotinylated proteins to the streptavidin biosensors and subsequent interactions with varying concentrations of synthetic peptides as indicated. (D) Steady-state analysis of real-time binding data for wtERG/ERG_Y373A and synthetic peptides. (E) Electrophoretic mobility shift assay (EMSA) for ERG and ETS binding sequence (EBS).

VCaP ERG = molecular target: T2, VCaP ERG (Homo sapiens, UniProt P11308); assay: Pull-down from whole cell lysates normalized for ERG levels; assay type: binding
T2 construct: endogenous in cells; host or cells: VCaP cells (ATCC): cultured cells, lysates or extracts, or VCaP xenograft tumours in nude mice
Description: (§1) Approximately 1 mg of soluble VCaP cell lysate prepared in RIPA buffer (Invitrogen) was incubated with varying amounts of biotinylated peptides for 2 hours at 4° C. HaloLink agarose beads (20 μl) were added to the peptide-lysate mixture and incubated for an additional 4 hours. Beads were then pelleted by centrifugation, washed three times in PBS-T and loaded into an SDSPAGE gel followed by Western blot analysis. Total VCaP cell lysate was loaded for positive control.
It was then determined whether RI-EIP affects normal ERG function.

HUVEC ERG = molecular target: T3, HUVEC ERG (Homo sapiens, UniProt P11308); assay: as above; assay type: binding
T3 construct: wild-type ERG expressed in human or murine endothelial cells; endogenous in cells; host or cells: HUVEC (human umbilical vein endothelial cells)

PSMA = PSMA (Homo sapiens, UniProt Q04609); conditions: reported in literature; cited from earlier work
[1] = human, in vivo; cited from earlier work
[2] = molecular target: T4, TMPRSS2:ERG gene fusion product (endogenous ERG) (Homo sapiens, UniProt P11308); assay: Biotin-peptide pull-down from VCaP cell lysates, immunoblot and mass spectrometry; assay type: binding; conditions: 53 kDa band of pull-downs, mass spectrometry
T4 construct: endogenous in cells; host or cells: VCaP cells (ATCC): cultured cells, lysates or extracts, or VCaP xenograft tumours in nude mice
Description: as §1
The samples were treated with SDS loading buffer supplied with 10 mM DTT for 5 min at 85° C. The proteins were alkylated by adding iodoacetamide to the final concentration of 15 mM. The samples were subjected to SDS-PAGE and the whole lanes were cut out and digested with trypsin in-gel for 2 hours. […]
The resulting spectrum files were transformed into MGF format by MSConvert software and interrogated by MASCOT 2.4 search engine using human UniProt database version 15 concatenated with reverse sequences for estimation of false discovery rate (FDR) and with a list of common contaminants. […] The peptide FDR was calculated as 2×(decoy_hits)/(target+decoy hits). Spectral counts for all detected proteins were assembled using an in-house written Python script. […]

ERG [3] = molecular target: T5, ERG (Homo sapiens, UniProt P11308)
T5 sequence (P11308 1-479): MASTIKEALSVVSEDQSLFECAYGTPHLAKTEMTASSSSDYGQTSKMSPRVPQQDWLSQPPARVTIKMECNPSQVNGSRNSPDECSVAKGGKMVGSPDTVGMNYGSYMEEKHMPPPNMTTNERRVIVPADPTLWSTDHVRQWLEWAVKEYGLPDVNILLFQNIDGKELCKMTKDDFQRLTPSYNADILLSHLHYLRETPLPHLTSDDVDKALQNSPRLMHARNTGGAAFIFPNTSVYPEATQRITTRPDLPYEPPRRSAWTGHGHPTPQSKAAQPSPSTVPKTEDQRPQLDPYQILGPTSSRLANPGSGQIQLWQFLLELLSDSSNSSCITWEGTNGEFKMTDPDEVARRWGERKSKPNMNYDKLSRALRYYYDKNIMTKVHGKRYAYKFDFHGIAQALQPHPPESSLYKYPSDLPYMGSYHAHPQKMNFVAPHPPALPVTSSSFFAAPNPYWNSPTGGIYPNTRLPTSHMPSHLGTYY
Description: (§2) Halo fusion proteins were expressed using the TNT® SP6 High-Yield Wheat Germ kit (Promega) following the manufacturer's protocol.

ERG_Y373A = ERG_Y373A (Homo sapiens, UniProt P11308, Y373A)
Description: as §2

ERG [4] = molecular target: T5, ERG; remark: listed apart in the source
Description: The interaction coefficients between ERG and synthetic peptides or peptidomimetics were determined by biolayer interferometry technology using the Octet Red system (ForteBio). Purified ERG and GUS proteins were biotinylated by EZLink NHS-PEG4 Biotinylation Kit (Thermo Scientific) following the manufacturer's protocol and any unincorporated biotin was removed from the reactions with Zeba 2 ml desalt columns (Thermo). Biotinylated proteins (500 μg/ml) were then incubated with super streptavidin biosensors in binding buffer (20 mM HEPES pH 7.4, 150 mM NaCl), blocked with 10 μg/ml biocytin and washed three times in binding buffer. Peptides were serially diluted in binding buffer, mixed with the protein-coupled biosensors and peptidomimetic:protein association/dissociation was monitored for 10 min at 25° C. Nonspecific binding from the signal obtained from peptidomimetic:GUS interactions was subtracted from that of peptidomimetic:ERG interactions and baseline signal drift was controlled by monitoring immobilized ERG without peptide. Octet Red analysis software was used to analyze the data.

GRPR = GRPR (Homo sapiens, UniProt P30550); conditions: Peptides 13, 775 (1992); cited from earlier work
Chain of GRPR (P30550 whole entry, species assumed): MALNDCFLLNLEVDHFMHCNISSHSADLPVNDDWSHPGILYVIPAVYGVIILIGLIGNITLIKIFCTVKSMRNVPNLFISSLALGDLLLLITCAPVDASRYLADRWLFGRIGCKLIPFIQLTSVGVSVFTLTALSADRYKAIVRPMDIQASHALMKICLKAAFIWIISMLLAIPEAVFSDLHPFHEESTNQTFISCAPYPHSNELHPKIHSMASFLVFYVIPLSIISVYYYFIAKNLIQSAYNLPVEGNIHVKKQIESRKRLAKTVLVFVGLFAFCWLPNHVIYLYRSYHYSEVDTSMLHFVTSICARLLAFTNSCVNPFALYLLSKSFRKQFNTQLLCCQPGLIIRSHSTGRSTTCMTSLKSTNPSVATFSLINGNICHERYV

Chain of ERG_Y373A (P11308 whole entry Y373A): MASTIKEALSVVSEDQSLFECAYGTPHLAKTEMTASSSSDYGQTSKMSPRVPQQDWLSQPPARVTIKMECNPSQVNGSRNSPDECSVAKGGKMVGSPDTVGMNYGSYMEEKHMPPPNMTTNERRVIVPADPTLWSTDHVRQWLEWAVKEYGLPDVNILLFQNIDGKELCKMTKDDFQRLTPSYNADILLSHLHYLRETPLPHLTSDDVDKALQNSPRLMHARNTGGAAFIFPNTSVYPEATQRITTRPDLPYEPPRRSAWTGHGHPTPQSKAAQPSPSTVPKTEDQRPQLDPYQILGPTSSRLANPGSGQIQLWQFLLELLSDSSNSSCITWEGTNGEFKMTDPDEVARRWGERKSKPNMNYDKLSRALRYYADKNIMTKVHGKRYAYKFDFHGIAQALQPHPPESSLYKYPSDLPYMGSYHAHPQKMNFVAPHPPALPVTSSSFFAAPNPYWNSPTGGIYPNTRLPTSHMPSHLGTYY
Chain of PSMA (Q04609 whole entry): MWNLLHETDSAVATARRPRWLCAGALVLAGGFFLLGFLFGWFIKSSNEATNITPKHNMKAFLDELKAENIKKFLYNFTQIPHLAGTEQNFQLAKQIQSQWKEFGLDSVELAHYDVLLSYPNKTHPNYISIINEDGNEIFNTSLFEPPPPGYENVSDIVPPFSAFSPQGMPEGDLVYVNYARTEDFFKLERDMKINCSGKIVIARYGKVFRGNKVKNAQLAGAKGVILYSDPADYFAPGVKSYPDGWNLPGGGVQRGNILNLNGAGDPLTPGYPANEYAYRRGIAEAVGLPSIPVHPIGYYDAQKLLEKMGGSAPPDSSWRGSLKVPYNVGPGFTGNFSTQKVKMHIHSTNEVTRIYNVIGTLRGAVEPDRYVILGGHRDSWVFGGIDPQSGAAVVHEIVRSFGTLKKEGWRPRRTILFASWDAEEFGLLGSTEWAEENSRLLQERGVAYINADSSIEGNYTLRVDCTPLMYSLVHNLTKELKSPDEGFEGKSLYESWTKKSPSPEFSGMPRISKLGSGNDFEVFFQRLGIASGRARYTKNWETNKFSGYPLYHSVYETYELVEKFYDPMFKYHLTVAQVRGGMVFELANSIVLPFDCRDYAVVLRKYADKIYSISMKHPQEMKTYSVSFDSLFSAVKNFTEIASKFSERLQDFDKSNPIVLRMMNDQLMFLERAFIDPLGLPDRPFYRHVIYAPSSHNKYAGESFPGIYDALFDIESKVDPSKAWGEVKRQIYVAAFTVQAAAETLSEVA

CC(C)C[C@H](NC(=O)[C@H](Cc1ccc(O)cc1)NC(=O)[C@@H]1CCCN1C(=O)[C@@H]1CCCN1C(=O)[C@H](CC(C)C)NC(=O)CCCC[C@@H]1SC[C@@H]2NC(=O)N[C@@H]21)C(=O)N[C@@H](Cc1ccccc1)C(=O)N[C@H](C(=O)O)[C@@H](C)O [Biotin-EIP1, Biotin-LPPYLFT] (Biotin-LPPYLFT-OH)
pull-down of wtERG (wild-type ERG (wtERG)): pulled down
amount of cell lysate for ERG pull-down (VCaP ERG): 0.25 mg/mL
amount of cell lysate for ERG pull-down (HUVEC ERG): 8 mg/mL

O=C(O)CC[C@H](NC(=O)N[C@@H](CCCCN(Cc1ccc(Br)cc1)C(=O)CCOCCOCCOCCOCCOCCOCCOCCOCCOCCOCCOCCOCCNC(=O)CCCC[C@@H]1SC[C@@H]2NC(=O)N[C@@H]21)C(=O)O)C(=O)O [Analogue 3]
IC50 (PSMA): 1.3 nM

CCNC(=O)[C@@H]1CCCN1C(=O)[C@H](CCCNC(=N)N)NC(=O)[C@H](CC(C)C)NC(=O)[C@@H](CC(C)C)NC(=O)[C@H](Cc1ccc(O)cc1)NC(=O)[C@H](CO)NC(=O)[C@H](Cc1c[nH]c2ccccc12)NC(=O)[C@H](Cc1c[nH]cn1)NC(=O)[C@@H]1CCC(=O)N1 [Leuprolide, pyro-EHWSY1LRP-NHEt]
half life [1]: 3 h

CC(C)C[C@H](NC(=O)CCCC[C@@H]1SC[C@@H]2NC(=O)N[C@@H]21)C(=O)N[C@@H](CO)C(=O)N[C@@H](Cc1ccccc1)C(=O)NCC(=O)N[C@@H](CO)C(=O)N[C@@H](CC(C)C)C(=O)N1CCC[C@H]1C(=O)O [biotin-EIP2, Biotin-LSFGSLP] (Biotin-LSFGSLP-OH)
spectral counts for the ERG peptide NTGGAAFIFPNTSVYPEATQR [2]: 111 spectral counts
interaction with ERG (ERG [3]): interact strongly
interaction with ERG (Y373A) (ERG_Y373A): No interaction was detected

H-PYLFT-NH2 [Compound 5PT-N, NH2-PYLFT-NH2]
binding to ERG (ERG [4]): most potent truncated peptides

fQWAVaHLM-OMe
affinity as GRPR antagonist (GRPR): good affinity
